According to publication PMC7077750 (Journal of medicinal chemistry, 2020):
Converted amounts (≈) assume the structure as drawn. Where two headings read alike, the source gives them in different places.

Assays:
physchem = details: pH 7.4
hCB1R [1] = target: T1, hCB1R (Homo sapiens, UniProt P21554); assay: DiscoveRx PathHunter βarrestin2 recruitment assay; details: for concentrations promoting CP55,940-dependent βarrestin2 recruitment: 100 nM CP55,940, 90 min
C57BL/6 mice [2] = assay: Triad assessment: warm water tail-flick test; details: 0.1-10 mg/kg i.p.; 20 min; significant vs vehicle at 3 and 10 mg/kg
C57BL/6 mice [3] = assay: Triad assessment: catalepsy; details: 0.1, 1, 3, or 10 mg/kg (i.p.); 5 min; vs vehicle
GFP-rCB1R = GFP-rCB1R (Rattus norvegicus, UniProt P20272); assay: cAMP inhibition; assay type: cell-based; details: for ΔEC50 / ΔEMax: difference between CP55,940 alone and maximal concentration of GAT compound
[4] = tested on: CFA-induced mechanical allodynia; assay: CFA-induced inflammatory nociception, mechanical allodynia; assay type: in vivo, mouse; details: for mechanical paw withdrawal threshold at 30 min post-injection: CFA-injected paw; for mechanical paw withdrawal threshold at 30 min post-injection / anti-allodynic efficacy at 4 h post injection: vs vehicle; for duration of efficacy post injection / suppression of CFA-induced mechanical allodynia in CB1KO mice: ipsilateral paw; for paw withdrawal thresholds in the contralateral paw: 0.1-30 mg/kg i.p.; for doses that elevated mechanical paw withdrawal thresholds relative to vehicle: CFA-injected (ipsilateral) paw, WT mice
C57BL/6 mice [5] = assay: Triad assessment: body temperature; details: 0.1, 1, 3, or 10 mg/kg (i.p.); 15 min; vs vehicle
hCB1R [6] = target: T1, hCB1R; assay: DiscoveRx HitHunter cAMP inhibition assay; details: for PAM bias between cAMP inhibition and βarrestin2 recruitment (ΔΔLogR): 100 nM CP55,940 as agonist; for PAM bias between cAMP inhibition and βarrestin2 recruitment (ΔΔLogR) / agonist bias between cAMP inhibition and βarrestin2 recruitment (ΔΔLogR): 90 min, operational model; for agonist bias between cAMP inhibition and βarrestin2 recruitment (ΔΔLogR): GAT compound alone
[7] = tested on: normotensive C57Bl/6J mice; details: cited from earlier work
[8] = tested on: CFA-induced mechanical allodynia; details: same CFA model; cited from earlier work
C57BL/6 mice [9] = details: orthosteric agonist at 10 mg/kg; cited from earlier work
C57BL/6 mice [10] = details: orthosteric agonist at 10 mg/kg; cited from earlier work; remark: listed apart in the source
[11] = tested on: autaptic hippocampal neurons; assay: Electrophysiology in autaptic hippocampal neurons; details: after 9j treatment
[12] = tested on: ocular hypertensive NEE mice; assay: Intraocular pressure in ocular hypertensive NEE mice; details: topical 0.2% 9j alone

T1 sequence (P21554 whole entry): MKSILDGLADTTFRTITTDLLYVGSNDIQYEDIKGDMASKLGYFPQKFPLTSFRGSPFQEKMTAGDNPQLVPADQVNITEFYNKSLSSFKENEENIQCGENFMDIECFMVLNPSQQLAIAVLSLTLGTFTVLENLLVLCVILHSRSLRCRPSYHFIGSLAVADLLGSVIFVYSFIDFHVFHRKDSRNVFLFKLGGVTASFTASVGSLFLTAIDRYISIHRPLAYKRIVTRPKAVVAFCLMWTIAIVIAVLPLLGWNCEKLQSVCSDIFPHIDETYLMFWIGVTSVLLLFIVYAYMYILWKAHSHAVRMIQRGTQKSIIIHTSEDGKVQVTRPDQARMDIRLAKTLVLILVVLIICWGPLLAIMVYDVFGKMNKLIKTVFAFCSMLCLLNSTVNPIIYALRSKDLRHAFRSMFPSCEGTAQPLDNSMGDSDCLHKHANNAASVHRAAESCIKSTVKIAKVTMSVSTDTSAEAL
GFP-rCB1R, sequence (P20272 whole entry): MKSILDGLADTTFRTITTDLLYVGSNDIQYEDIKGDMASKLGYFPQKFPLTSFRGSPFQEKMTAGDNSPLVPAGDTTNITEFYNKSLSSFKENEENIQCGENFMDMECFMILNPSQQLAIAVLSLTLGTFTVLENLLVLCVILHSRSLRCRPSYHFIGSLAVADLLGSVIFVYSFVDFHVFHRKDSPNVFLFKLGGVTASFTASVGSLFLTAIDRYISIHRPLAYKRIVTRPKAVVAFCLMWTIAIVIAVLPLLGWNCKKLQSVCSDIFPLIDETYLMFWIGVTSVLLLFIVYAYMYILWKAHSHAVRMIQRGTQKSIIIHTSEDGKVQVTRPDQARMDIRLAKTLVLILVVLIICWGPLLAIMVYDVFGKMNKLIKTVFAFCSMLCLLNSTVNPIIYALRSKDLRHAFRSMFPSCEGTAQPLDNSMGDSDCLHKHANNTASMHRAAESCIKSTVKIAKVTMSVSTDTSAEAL

Work on `O=[N+]([O-])CC(c1ccccc1)c1c(-c2cccnc2)[nH]c2ccccc12` (centres unmarked) [Compound 9d, 3-(2-Nitro-1-phenylethyl)-2-(pyridin-3-yl)-1H-indole] yielded a solubility thermodynamic (physchem) of 1.7 µg/mL (≈ 4.95 µM).
In the case of `O=[N+]([O-])CC(c1ccccc1)c1c(-c2ccncc2)[nH]c2ccccc12` (centres unmarked) [Compound 9e, 3-(2-Nitro-1-phenylethyl)-2-(pyridin-4-yl)-1H-indole], the solubility thermodynamic (physchem) is reported as 0.7 µg/mL (≈ 2.04 µM).
`O=[N+]([O-])CC(c1ccncc1)c1c(-c2ccccc2)[nH]c2ccccc12` (centres unmarked) [Compound 9c, 3-(2-Nitro-1-(pyridin-4-yl)ethyl)-2-phenyl-1H-indole] gave a solubility thermodynamic (physchem) of 12.6 µg/mL (≈ 36.7 µM).
With `O=[N+]([O-])CC(c1ccccc1F)c1c(-c2cccc(F)c2)[nH]c2c(F)cccc12` (centres unmarked) [Compound 6s, 7-Fluoro-2-(3-fluorophenyl)-3-(1-(2-fluorophenyl)-2-nitroethyl)-1H-indole] the “concentrations promoting CP55,940-dependent βarrestin2 recruitment” value (hCB1R [1]) was no less than 3.5 µM, the “anti-nociceptive effect in the tail flick assay” value (C57BL/6 mice [2]) was “dose-dependent anti-nociceptive effect” and the catalepsy (C57BL/6 mice [3]) was “did not produce catalepsy”. The ΔEC50 (GFP-rCB1R) was -12 ± 8.0 nM, the ΔEMax (GFP-rCB1R) was 67 ± 15 % Forskolin and the “antinociceptive efficacy compared with 6r at […] post injection” value ([4]; 30 mg/kg i.p.) was “greater antinociceptive efficacy than 6r”. The “mechanical paw withdrawal threshold at 30 min post-injection” value ([4]; 30 mg/kg i.p.) was “increased mechanical paw withdrawal threshold”, the “duration of efficacy post injection” value ([4]; 30 mg/kg i.p.) was “at least 2.5 h” and the “suppression of CFA-induced mechanical allodynia in CB1KO mice” value ([4]; 30 mg/kg i.p.) was “Neither”. For the same compound, the “anti-allodynic efficacy at 4 h post injection” value ([4]; 30 mg/kg i.p.) was “no longer present”, the “paw withdrawal thresholds in the contralateral paw” value [4] was “without altering paw withdrawal thresholds in the contralateral paw” and the “doses that elevated mechanical paw withdrawal thresholds relative to vehicle” value ([4]; i.p.) was 3 to 30 mg/kg. For the same compound, the hypothermia (C57BL/6 mice [5]) was “did not produce catalepsy or hypothermia”, the “PAM bias between cAMP inhibition and βarrestin2 recruitment (ΔΔLogR)” value (hCB1R [6]) was “display bias toward cAMP inhibition” and the “agonist bias between cAMP inhibition and βarrestin2 recruitment (ΔΔLogR)” value (hCB1R [6]) was “agonist bias toward cAMP inhibition”.
In the case of `Cc1c(C(=O)c2cccc3ccccc23)c2cccc3c2n1[C@H](CN1CCOCC1)CO3` [WIN], the “effect on IOP” value ([7]; topical 1% WIN) is given as “decreases IOP” and the “effect on IOP” value ([7]; topical WIN […] (subthreshold)) is given as “does not affect IOP”.
In the case of `O=[N+]([O-])CC(c1ccccn1)c1c(-c2ccccc2)[nH]c2ccccc12` (centres unmarked) [Compound 9a, 3-(2-Nitro-1-(pyridin-2-yl)ethyl)-2-phenyl-1H-indole], the solubility thermodynamic at 24 h (physchem) is reported as 1 µg/mL (≈ 2.91 µM).
With `O=[N+]([O-])CC(c1ccccc1)c1c(-c2ccccc2)[nH]c2cccnc12` (centres unmarked) [Compound 9f, 3-(2-Nitro-1-phenylethyl)-2-phenyl-1H-pyrrolo[3,2-b]pyridine] the solubility thermodynamic (physchem) was 3.8 µg/mL (≈ 11.1 µM).
With `O=[N+]([O-])CC(c1ccccc1)c1c(-c2ccccc2)[nH]c2ncccc12` (centres unmarked) [Compound 9i, 3-(2-Nitro-1-phenylethyl)-2-phenyl-1H-pyrrolo[2,3-b]pyridine] the solubility thermodynamic (physchem) was 54.6 µg/mL (≈ 159 µM).
`O=[N+]([O-])CC(c1ccccc1)c1c(-c2ccccc2)[nH]c2ccncc12` (centres unmarked) [Compound 9g, 3-(2-Nitro-1-phenylethyl)-2-phenyl-1H-pyrrolo[3,2-c]pyridine] showed a solubility thermodynamic (physchem) of 8.1 µg/mL (≈ 23.6 µM).
`O=[N+]([O-])CC(c1cccnc1)c1c(-c2ccccc2)[nH]c2ccccc12` (centres unmarked) [Compound 9b, 3-(2-Nitro-1-(pyridin-3-yl)ethyl)-2-phenyl-1H-indole] gave a solubility thermodynamic (physchem) of 0.4 µg/mL (≈ 1.16 µM).
With `O=[N+]([O-])CC(c1ccccc1F)c1c(-c2cccc(F)c2)[nH]c2cc(F)ccc12` (centres unmarked) [Compound 6r, 6-Fluoro-2-(3-fluorophenyl)-3-(1-(2-fluorophenyl)-2-nitroethyl)-1H-indole] the “concentrations promoting CP55,940-dependent βarrestin2 recruitment” value (hCB1R [1]) was no less than 0.19 µM, the “anti-nociceptive effect in the tail flick assay” value (C57BL/6 mice [2]) was “dose-dependent anti-nociceptive effect” and the catalepsy (C57BL/6 mice [3]) was “did not produce catalepsy”. For the same compound, the ΔEC50 (GFP-rCB1R) was -12 ± 5.7 nM, the ΔEMax (GFP-rCB1R) was 68 ± 4.3 % Forskolin and the “mechanical paw withdrawal threshold at 30 min post-injection” value ([4]; 30 mg/kg i.p.) was “increased mechanical paw withdrawal threshold”. For the same compound, the “duration of efficacy post injection” value ([4]; 30 mg/kg i.p.) was “at least 2.5 h”, the “suppression of CFA-induced mechanical allodynia in CB1KO mice” value ([4]; 30 mg/kg i.p.) was “Neither” and the “anti-allodynic efficacy at 4 h post injection” value ([4]; 30 mg/kg i.p.) was “no longer present”. The “paw withdrawal thresholds in the contralateral paw” value [4] was “without altering paw withdrawal thresholds in the contralateral paw”, the “dose that maximally suppressed CFA-induced inflammatory pain” value ([4]; i.p.) was 30 mg/kg and the “doses that elevated mechanical paw withdrawal thresholds relative to vehicle” value ([4]; i.p.) was 3 to 30 mg/kg. For the same compound, the hypothermia (C57BL/6 mice [5]) was “did not produce catalepsy or hypothermia”, the “PAM bias between cAMP inhibition and βarrestin2 recruitment (ΔΔLogR)” value (hCB1R [6]) was “display bias toward cAMP inhibition” and the “agonist bias between cAMP inhibition and βarrestin2 recruitment (ΔΔLogR)” value (hCB1R [6]) was “agonist bias toward cAMP inhibition”.
In the case of `O=[N+]([O-])CC(c1ccccc1)c1c(-c2ccccc2)[nH]c2ccccc12` (centres unmarked) [Compound 6d, 3-(2-Nitro-1-phenylethyl)-2-phenyl-1H-indole], the “anti-allodynic efficacy at 1.5 h” value [8] is listed as “present”, the “anti-allodynic efficacy at […] post injection” value [8] is listed as “absent” and the “time of maximal anti-allodynic efficacy post-injection” value [8] is listed as 30 min. For the same compound, the Emax (hCB1R [6]; read-out: cAMP EMax, PAM activity, CP55,940 at EC20 + analog, 30 min, mean ± SEM) was 110 ± 6.8%.
In the case of `CCCCCc1cc(O)c2c(c1)OC(C)(C)[C@@H]1CCC(C)=C[C@@H]21` [THC, Δ[9]-tetrahydrocannabinol], the hypothermic effects (C57BL/6 mice [9]) is given as “hypothermic effects” and the catalepsy (C57BL/6 mice [10]) is given as “significant catalepsy”.
Work on `O=[N+]([O-])CC(c1ccccc1)c1c(-c2ccccc2)[nH]c2cnccc12` (centres unmarked) [Compound 9h, 3-(2-Nitro-1-phenylethyl)-2-phenyl-1H-pyrrolo[2,3-c]pyridine] yielded a solubility thermodynamic (physchem) of 2.3 µg/mL (≈ 6.7 µM).
For `O=[N+]([O-])CC(c1ncccc1F)c1c(-c2ccccc2)[nH]c2ccccc12` (centres unmarked) [Compound 9j, 3-(1-(3-Fluoropyridin-2-yl)-2-nitroethyl)-2-phenyl-1H-indole], the DSE response [11] was “DSE was enhanced”, the catalepsy (C57BL/6 mice [3]) was “did not produce catalepsy” and the “change in IOP from baseline, 1 hour” value ([12]; 1 h) was −2.5 ± 1 mmHg. The “change in IOP from baseline, 6 hours” value ([12]; 6 h) was −3.6 ± 1 mmHg, the “IOP decrease at 12 hours” value ([12]; 12 h) was “no longer present” and the hypothermia (C57BL/6 mice [5]) was “did not produce catalepsy or hypothermia”.
For `CCCCCCC(C)(C)c1ccc([C@@H]2C[C@H](O)CC[C@H]2CCCO)c(O)c1` [CP55,940, reference compound], the “Standard agonist EMax, PathHunter βarrestin2” value (hCB1R [1]; standard agonist alone) was 8.0 ± 1.3 fold over baseline, the “CP55,940 EMax, Vehicle (0)” value (GFP-rCB1R; CP55,940 without GAT compound, upper plateau) was 100 ± 6.4 % Forskolin and the “Standard agonist EMax, HitHunter cAMP” value (hCB1R [6]; standard agonist alone) was 1.5 ± 0.07 fold over baseline.
